Converted amounts (≈) assume the structure as drawn. Values belong to the compound of their own block, whether it stands above or below them.
Key:
Test in all cases: ≥ marks a high value that may be exact or a test limit, other limits are often not marked, values filed in µg/mL are converted to µM
[1] = test system: Candida albicans NCTC 1467
[2] = test system: Enterococcus faecalis NCTC 12697
[3] = test system: Escherichia coli NCTC 10418
[4] = test system: Klebsiella pneumoniae ATCC 43816
[5] = test system: Pseudomonas aeruginosa ATCC 27853
[6] = test system: Staphylococcus aureus NCTC 10788
[7] = test system: Staphylococcus aureus NCTC 12493
[8] = test system: Escherichia coli ATCC 25922
[9] = test system: Klebsiella pneumoniae ATCC 13883
[10] = test system: Staphylococcus aureus USA 300 LAC
[11] = test system: Acinetobacter baumannii ATCC 19606
[12] = test system: Escherichia coli BW25113 ΔsbmA
Escherichia coli BW25113 = test system: Escherichia coli BW25113
Escherichia coli = test system: Escherichia coli
[13] = test system: Klebsiella pneumoniae ATCC 700603
[14] = test system: Staphylococcus aureus ATCC 25923
Escherichia coli AB94012 = test system: Escherichia coli AB94012
[15] = test system: Pseudomonas aeruginosa ATCC 9027
[16] = test system: Staphylococcus aureus AB6538
[17] = test system: Staphylococcus aureus AB94004
[18] = test system: Cronobacter muytjensii ATCC 51329
[19] = test system: Cronobacter sakazakii ATCC BAA-894
[20] = test system: Cronobacter sakazakii DPC 6440
[21] = test system: Cronobacter sakazakii DSM 4485
[22] = test system: Escherichia coli NCIMB 11843
[23] = test system: Klebsiella pneumoniae NCIMB 13218
[24] = test system: Pseudomonas fluorescens NCIMB 9046
[25] = test system: Salmonella enterica subsp. enterica serovar Typhimurium LT2
[26] = test system: Staphylococcus aureus NCTC 8325-4
[27] = test system: Staphylococcus aureus Newman
[28] = test system: Staphylococcus aureus RF122
[29] = test system: Staphylococcus aureus RN4220
[30] = test system: Staphylococcus aureus SA113
[31] = test system: Candida albicans ATCC 10231
[32] = test system: Escherichia coli KCTC 2223
[33] = test system: Pseudomonas aeruginosa H636
[34] = test system: Salmonella typhimurium KCTC 2370
[35] = test system: Staphylococcus aureus ATCC 15752
Escherichia coli D31 = test system: Escherichia coli D31
[36] = test system: Pseudomonas aeruginosa ATCC 10145
[37] = test system: Salmonella enterica subsp. enterica serovar Typhimurium ATCC 700931
[38] = test system: Staphylococcus aureus ATCC 27660
[39] = test system: Staphylococcus epidermidis ATCC 14990

SMILES: CC[C@H](C)[C@H](NC(=O)[C@@H]1CCCN1C(=O)[C@H](CCCN=C(N)N)NC(=O)[C@H](CCCN=C(N)N)NC(=O)[C@H](Cc1c[nH]c2ccccc12)NC(=O)[C@@H](N)CCCN=C(N)N)C(=O)N[C@@H](CCCN=C(N)N)C(=O)N[C@@H](CCCN=C(N)N)C(=O)N[C@@H](CCCN=C(N)N)C(=O)N1CCC[C@H]1C(=O)N[C@H](C(=O)N[C@@H](CCCN=C(N)N)C(=O)N1CCC[C@H]1C(=O)N1CCC[C@H]1C(=O)N[C@@H](Cc1ccccc1)C(=O)N[C@@H](Cc1ccc(O)cc1)C(=O)N[C@@H](Cc1c[nH]c2ccccc12)C(=O)O)[C@@H](C)CC [RWRRPIRRRPIRPPFYW]
- MIC [11]: 2 µM (≈ 4.82 µg/mL)
- MIC [12]: 4 µM (≈ 9.64 µg/mL)
- MIC (Escherichia coli BW25113): 4 µM (≈ 9.64 µg/mL)
- MIC (Escherichia coli): 1.41 µM (≈ 3.41 µg/mL)
- MIC [13]: 64 µM (≈ 154 µg/mL)
- MIC [5]: 32 µM (≈ 77.1 µg/mL)
- MIC [14]: 32 µM (≈ 77.1 µg/mL)

SMILES: CC[C@H](C)[C@H](NC(=O)[C@H](CO)NC(=O)[C@@H]1CCCN1C(=O)[C@H](CC(C)C)NC(=O)[C@@H](NC(=O)[C@H](CO)NC(=O)CNC(=O)[C@H](CC(C)C)NC(=O)[C@@H](NC(=O)[C@H](CO)NC(=O)CNC(=O)[C@H](CC(C)C)NC(=O)[C@H](CC(C)C)NC(=O)CNC(=O)[C@H](CC(C)C)NC(=O)[C@@H](N)Cc1ccccc1)C(C)C)C(C)C)C(=O)N[C@@H](Cc1ccccc1)C(=O)N[C@@H](CCCCN)C(N)=O [FLGLLGSVLGSVLPSIFK]
- MIC (Escherichia coli AB94012): ≥ 54.1 µM
- MIC [8]: > 54.1 µM
- MIC [5]: > 54.1 µM
- MIC [15]: > 54.1 µM
- MIC [16]: 6.77 µM (≈ 12.5 µg/mL)
- MIC [17]: 6.77 µM (≈ 12.5 µg/mL)

SMILES: CC[C@H](C)[C@H](N)C(=O)N[C@@H](C)C(=O)N[C@@H](C)C(=O)N[C@@H](CCC(N)=O)C(=O)NCC(=O)N[C@@H](CC(C)C)C(=O)N1CCC[C@H]1C(=O)N[C@@H](CCC(N)=O)C(=O)N[C@@H](CCC(=O)O)C(=O)O [IAAQGLPQE]
- MIC [18]: ≥ 2500 µM
- MIC [19]: ≥ 2500 µM
- MIC [20]: ≥ 312 µM
- MIC [21]: ≥ 2500 µM
- MIC [22]: ≥ 1250 µM
- MIC [23]: ≥ 1250 µM
- MIC [24]: ≥ 1250 µM
- MIC [25]: ≥ 1250 µM
- MIC [26]: ≥ 1250 µM
- MIC [27]: ≥ 1250 µM
- MIC [28]: ≥ 1250 µM
- MIC [29]: ≥ 1250 µM
- MIC [30]: ≥ 1250 µM

SMILES: C[C@H](N)C(=O)N[C@@H](Cc1ccccc1)C(=O)N[C@@H](Cc1c[nH]c2ccccc12)C(=O)N[C@@H](CCCCN)C(=O)N[C@@H](CCCCN)C(=O)N[C@@H](Cc1ccccc1)C(=O)N[C@@H](Cc1ccccc1)C(=O)N[C@@H](CCCCN)C(=O)N[C@@H](CCCCN)C(=O)N[C@@H](Cc1ccccc1)C(=O)N[C@@H](Cc1ccccc1)C(=O)N[C@@H](CCCCN)C(=O)N[C@@H](CO)C(=O)N[C@@H](C)C(=O)N[C@@H](CCCCN)C(=O)N[C@@H](CCCCN)C(=O)N[C@@H](Cc1ccccc1)C(=O)NCC(=O)O [AFWKKFFKKFFKSAKKFG]
- MIC (Escherichia coli D31): 1.88 µM (≈ 4.27 µg/mL)
- MIC [36]: 1.88 µM (≈ 4.27 µg/mL)
- MIC [37]: 1.88 µM (≈ 4.27 µg/mL)
- MIC [38]: 1.88 µM (≈ 4.27 µg/mL)
- MIC [39]: 0.94 µM (≈ 2.13 µg/mL)

Other lines, results leading:

- MIC [1]: 16 µM (≈ 44.5 µg/mL)
- MIC [2]: 8 µM (≈ 22.3 µg/mL)
- MIC [3]: 8 µM (≈ 22.3 µg/mL)
- MIC [4]: 8 µM (≈ 22.3 µg/mL)
- MIC [5]: 32 µM (≈ 89 µg/mL)
- MIC [6]: 8 µM (≈ 22.3 µg/mL)
- MIC [7]: 8 µM (≈ 22.3 µg/mL)
SMILES: CSCC[C@H](NC(=O)[C@H](CCC(=O)O)NC(=O)[C@H](CCCCN)NC(=O)[C@H](CC(C)C)NC(=O)[C@H](CCCCN)NC(=O)CNC(=O)[C@H](Cc1c[nH]c2ccccc12)NC(=O)[C@H](CC(C)C)NC(=O)[C@@H](N)CO)C(=O)N[C@@H](CC(C)C)C(=O)N[C@@H](C)C(=O)N[C@@H](CCCCN)C(=O)N[C@@H](C)C(=O)NCC(=O)N[C@@H](CCCCN)C(=O)N[C@@H](C)C(=O)N[C@H](C(=O)N[C@@H](C)C(=O)N[C@@H](CC(N)=O)C(=O)N[C@@H](C)C(=O)N[C@H](C(=O)N[C@@H](CC(N)=O)C(=O)NCC(=O)N[C@@H](CC(C)C)C(=O)N[C@@H](C)C(=O)N[C@@H](CC(N)=O)C(=O)N[C@@H](CCC(N)=O)C(N)=O)C(C)C)C(C)C [SLWGKLKEMLAKAGKAVANAVNGLANQ]

- MIC [8]: 8.8 µM (≈ 11.2 µg/mL)
- MIC [9]: 12.5 µM (≈ 15.9 µg/mL)
- MIC [10]: 3.1 µM (≈ 3.94 µg/mL)
SMILES: CC[C@H](C)[C@H](NC(=O)[C@H](CCCCN)NC(=O)[C@H](CCCN=C(N)N)NC(=O)[C@H](CC(C)C)NC(=O)[C@H](Cc1c[nH]c2ccccc12)NC(=O)[C@H](Cc1c[nH]c2ccccc12)NC(=O)[C@@H](N)Cc1c[nH]c2ccccc12)C(=O)N[C@@H](Cc1c[nH]c2ccccc12)C(N)=O [WWWLRKIW]

- MIC [31]: > 32 µM
- MIC [32]: ≥ 32 µM
- MIC [33]: ≥ 32 µM
- MIC [34]: ≥ 32 µM
- MIC [35]: ≥ 32 µM
SMILES: CC(C)C[C@H](NC(=O)[C@H](CCCCN)NC(=O)[C@H](CCCN=C(N)N)NC(=O)[C@H](CCC(N)=O)NC(=O)[C@@H](N)CO)C(=O)N[C@@H](C)C(=O)N[C@@H](C)C(=O)N[C@@H](CCCCN)C(=O)N[C@@H](CC(C)C)C(=O)N[C@H](C(=O)N[C@@H](CO)C(=O)N[C@@H](CCCCN)C(=O)O)[C@@H](C)O [SQRKLAAKLTSK]

Reference: DBAASP
